Laboratory results published in paper PMC4871512, “Drug-Based Lead Discovery: The Novel Ablative Antiretroviral Profile of Deferiprone in HIV-1-Infected Cells and in HIV-Infected Treatment-Naive Subjects of a Double-Blind, Placebo-Controlled, Randomized Exploratory Trial” (PLoS ONE, 2016).

How the values were obtained:
[1] = Proof-of-concept trial: safety and tolerability
Protocol: Since we were dosing a population with previously untested tolerance for deferiprone, the exploratory trial of this orally administered drug was conducted under uninterrupted medical observation and standardized conditions, e.g. uniform diet to minimize confounding food effects, in a specialized in-patient research unit for Phase I protocols. In-unit supervision lasted for the entire one-week duration of deferiprone ingestion (first stage of protocol S1 in Fig 6), which was intentionally restricted to the oral intake of in total just 17 doses. After discharge from the research unit, outpatient follow-up occurred at 4 weeks and 8 weeks (second stage of protocol S2 in Fig 6). […] Using drug toxicity grading criteria proposed by NIH [97, 98], we defined the following tolerability profile:
Eligible for enrollment were volunteers of both genders, between 18 and 60 years old, healthy or HIV-infected with CD4 count ≥ 300/mm^3, viral load of ≥ 10,000 copies/ml, and absence of active infectious disease; AIDS-defining condition; febrile illness; liver or kidney disease; hypersensitivity to test material; and medication requirement. The protocol involved a screening visit; a pharmacokinetic and antiretroviral study requiring admission to a specialized Phase I research unit for a week of on-drug treatment, with multiple blood draws from a peripheral vein after oral intake of the first deferiprone dose, either 33 mg/kg or 50 mg/kg, and at least three repeat blood draws (first stage of protocol); an off-drug observation period of eight weeks, which comprised at least two repeat visits (second stage of protocol); and an exit visit. Enrollment complied with the applicable standard-of-care specified in the ‘Clinical Guidelines for the Management of HIV & AIDS in Adults and Adolescents’, National Department of Health, Republic of South Africa. Primary parameters included safety and tolerability (e.g. vital signs, laboratory variables, cardiac monitoring by ECG) and antiretroviral activity (e.g. RNA copies of HIV-1). Secondary parameters included pharmacokinetic variables (e.g. peak serum concentration) in serum, drawn from a peripheral vein at fixed times (0, 0.5, 1, 1.5, 2, 3, 4, 6, 9, 12) after the ingestion of the first dose on Day 1 of the study. The concentration of the nonconjugated, chelation-competent form of deferiprone in serum was determined by UV detection at 280 nm, after separation via reversed-phase HPLC under isocratic conditions. The lower limit of deferiprone quantitation was 1.466 μM, or 0.204 μg/ml. HIV-1 RNA was measured as described and used as log10-transformed parameter in all calculations.
26 consecutive subjects were randomly enrolled in the IRB-approved proof-of-concept trial and gave written informed consent to be studied (Supporting Information, S2 Text); recruitment of trial subjects commenced in November 2006 and follow-up terminated in April 2008. Double-blind enrollment comprised i) 18 HIV-infected, asymptomatic and—according to the applicable standard-of-care [74]–cART-ineligible individuals, who either received placebo (N = 4 [Protocol Group 4]) or deferiprone (Ferriprox®) administered orally every 8 hours in three equal doses under medical supervision, totaling initially either 99 mg/kg/day (N = 7 [Protocol Group 1]) or subsequently 150 mg/kg/day (N = 7 [Protocol Group 3]); and ii) 8 uninfected individuals either on placebo (N = 2 [Protocol Group 5]) or daily deferiprone (N = 6; 150 mg/kg/day [Protocol Group 2]); CD4 cells were quantified before, during, and at the end of the one-week treatment period. […] Visually identical tablets of deferiprone / placebo were administered once on Days 1 and 7, and thrice on Days 2–6 of protocol.

[2] = in vitro; format: cell-based; conditions: human
Protocol: The antiretroviral activity of deferiprone was tested in primary cultures of PBMCs, infected in vitro with clinical isolate or mock-infected with clinical isolate-identical cell- and virus-free medium as described. Briefly, to approximate the bi-compartmental mode of HIV-1 infection in vivo, which comprises a cell-generative compartment that provides non-infected but HIV-1 susceptible cells, and an HIV-generative compartment in which they become infected, the cultures were replenished as described with freshly obtained uninfected primary cells and medium at regular intervals, assuring identical cell number in both the treated and control cultures by computerized trypan blue exclusion analysis (Vi-CELL™; Beckman Coulter, Miami, FL); deferiprone concentrations were adjusted as indicated. This model allowed for months-long monitoring of HIV-1 parameters in productively infected cultures.

Q: Which results are given for Cc1c(O)c(=O)ccn1C [deferiprone, 3-hydroxy-1,2-dimethylpyridin-4-one]?
A: enrollees who completed the study ([1]; 99 mg group): 86%; persons with elevations of transaminases and γ-glutamyl transpeptidase ([1]; 99 mg group, N = 7 HIV-infected, end of the treatment week): 2; grade of transaminase elevations ([1]; 99 mg group, the 2 affected persons): Grade 3 and Grade 2; grade of γ-glutamyl transpeptidase elevations ([1]; 99 mg group, the 2 affected persons, respectively): Grade 1 and Grade 2; enrollees who completed the study ([1]; 150 mg group overall, N = 13): 61%; persons with a rise in serum liver enzymes ([1]; 150 mg group, HIV-uninfected): 2 of 6; hematologic adverse event ([1]; 150 mg group, Subject 22 (cmax 285 μM), medication discontinued on Day 3): agranulocytosis (Grade 4 absolute neutrophil count); grade of γ-glutamyl transpeptidase elevation ([1]; 150 mg group, Subject 22 and Subject 24): Grade 2; persons with a rise in serum liver enzymes ([1]; 150 mg group, asymptomatic HIV-infected): 4 of 7; grade of transaminase elevations ([1]; 150 mg group, the four affected HIV-infected persons): three Grade 2 and one Grade 4; protocol completion ([1]; 150 mg group, those with HIV infection): 57%; rise in serum liver enzymes, grade ([1]; HIV-uninfected persons on 150 mg/day, Subject 9 and Subject 12): Grade 1 transaminase elevation; spontaneous correction of the neutrophil count ([1]; Subject 22): within two weeks off-drug; spontaneous correction of the liver function abnormality ([1]; Subject 22 and Subject 24): within one week off-drug; heart rate-corrected QT interval on-drug ([1]; Subject 317, 150 mg group, Grade 2 QTc prolongation): 491 ms; increase of heart rate-corrected QT interval ([1]; Subject 317, 150 mg group, baseline 441 ms, first stage, judged likely not causally linked): 50 ms; off-drug rate-corrected QT interval ([1]; Subject 317, several days after the end of drug intake): up to 488 ms; effect of dose increase on tolerability ([1]; in vivo): markedly reduced the tolerability; neurological adverse event ([1]; one HIV-uninfected person, at 6 and 8 days after the end of deferiprone treatment): convulsive episodes; viability at 200 µM [2]: ≥ 95%; viability at 200 μM [2]: > 95%
